US20230181541A1, “COMPOSITIONS AND METHODS FOR TREATING OBSESSIVE-COMPULSIVE DISORDER” (Biohaven Therapeutics Ltd., priority 2020, published 2023)
Like-named read-outs stand apart in the source and are kept apart here.

Test system: OCD patients with inadequate response to standard of care treatment
Conditions: for YBOCS Compulsions Subscale Change from Baseline, LS Mean / YBOCS Compulsions Subscale Change from Baseline, Troriluzole vs Placebo Difference Estimate / YBOCS Obsessions Subscale Change from Baseline, LS Mean / YBOCS Obsessions Subscale Change from Baseline, Troriluzole vs Placebo Difference Estimate / YBOCS Total Change from Baseline, Troriluzole vs Placebo Difference Estimate / YBOCS Total Change from Baseline, LS Mean / YBOCS Total Score Change from Baseline, LS Mean: MITT data set, MMRM; for YBOCS Total Score Change from Baseline, LS Mean: only subjects <= median baseline YBOCS total = 26, not validated
Description: In some embodiments of the invention, the individual treated according to the claimed method is assessed using the Yale Brown Obsessive Compulsive Scale (“Y-BOCS”). See Goodman et al., Arch. Gen. Psychiatry, 1989, 46, 1006-1011. According to this system, an individual is scored using a symptom checklist by asking the individual about specific obsessions and compulsions. Such symptoms are broadly categorized as aggressive obsessions, contamination obsessions, sexual obsessions, hoarding/saving obsessions, religious obsessions, obsession with need for symmetry or exactness, miscellaneous obsessions, somatic obsessions, cleaning/washing compulsions, checking compulsions, repeating rituals, counting compulsions, ordering/arranging compulsions, and miscellaneous compulsions. Each of these categories is further divided by subcategory of more specific symptoms. Individuals are scored according to the answers provided. Scores range from 0-7 for subclinical, 8-15 for mild, 16-23 for moderate, 24-31 for severe, and 32-40 for extreme severity.
Subjects receive a dose of 140 mg QD for the first four (4) weeks, and the dose is then increased to 200 mg QD for the duration of the study. Down titration is only allowed to address tolerability issues**. Eligible subjects include those who perceived benefit in earlier phases or for whom the Principal Investigator (PI) believes extended treatment with BHV-4157 would offer an acceptable risk-benefit profile***. Subjects start the Extension phase on the dose that was taken at the end of the Randomization phase. Subjects receiving placebo in the randomization phase are blindly switched to a 140 mg dose QD for the first 4 week, and the dose is then increased to 200 mg QD (at the Week 4 visits). Down titration is only allowed to address tolerability issues. All visits after Week 4 are open-label****.
Subjects who are stable on Standard of Care (SOC) medication and having an inadequate response to SOC are randomized to additionally receive placebo (QD) or troriluzole for 12 weeks (200 mg QD, after four weeks at 140 mg QD). Subjects completing the Randomization Phase are offered approximately 48 weeks of open-label treatment. The study is conducted from December 2017 to June 2020 with 242 subjects randomized at over 56 sites. The full study details are available online at https://clinicaltrials.gov/ct2/show/study/NCT03299166?term=biohaven&cond=Obsessive-Compulsive+Disorder&draw=2&rank=1.
The study involves subjects with a primary diagnosis of OCD as per Diagnostic and Statistical Manual of Mental Disorders, Fifth Edition, as confirmed by the MINI at screening.
Duration of the subject's illness must be equal to or greater than 1 year.
The Clinical Global Impression Score (CGI-S) must be equal to or greater than 4 at screening and baseline.
Subjects are excluded with a history of more than two (2) previous failed treatment trials of SSRIs, clomipramine, venlafaxine, or desvenlafaxine, (not including the current SSRI trial) given for an adequate duration at an adequate dose as defined by the MGH-TRQ-OCD.
Subjects are excluded if they display acute suicidality or suicide attempt or self-injurious behavior in the last 12 months.
Subjects are excluded if they have a Brown Assessment of Beliefs (BABS) score of greater than 17 at screening and baseline.
Use of a stimulant, neuroleptic (antipsychotic), mood stabilizer and glutamate agent (e.g., topiramate, lamotrigine, N-acetylcysteine, ketamine, memantine, sodium valproate) is prohibited within the 4 weeks prior to screening and during the study.
Current daily anxiolytic or benzodiazepine use is prohibited.

[1] = Week 4, only subjects > baseline YBOCS = 26 (median)
[2] = Week 8, only subjects > baseline YBOCS = 26 (median)
[3] = Week 12, only subjects > baseline YBOCS = 26 (median)

CN(CC(=O)Nc1nc2ccc(OC(F)(F)F)cc2s1)C(=O)CNC(=O)CN [Troriluzole]
Y-BOCS outcome versus placebo (in words) (200 mg once daily as adjunctive therapy, all study timepoints (weeks 4 to 12)): consistent numerical improvement over placebo
YBOCS Compulsions Subscale Change from Baseline, LS Mean (Week 4): −1.72
YBOCS Compulsions Subscale Change from Baseline, Troriluzole vs Placebo Difference Estimate (Week 4): −0.44
YBOCS Obsessions Subscale Change from Baseline, LS Mean (Week 4): −1.67
YBOCS Obsessions Subscale Change from Baseline, Troriluzole vs Placebo Difference Estimate (Week 4): −0.02
YBOCS Total Change from Baseline, Troriluzole vs Placebo Difference Estimate (Week 4): −0.5
YBOCS Total Change from Baseline, LS Mean (Week 4, 140 mg QD first 4 weeks then 200 mg QD, added to SOC): −3.4 points
YBOCS Total Score Change from Baseline, LS Mean (Week 4): −2.8
YBOCS Total Change from Baseline, LS Mean [1]: −4.1 points
YBOCS Total Change from Baseline, Troriluzole vs Placebo Difference Estimate [1]: −0.6
YBOCS Compulsions Subscale Change from Baseline, LS Mean (Week 8): −2.61
YBOCS Compulsions Subscale Change from Baseline, Troriluzole vs Placebo Difference Estimate (Week 8): −1.20
YBOCS Obsessions Subscale Change from Baseline, LS Mean (Week 8): −2.50
YBOCS Obsessions Subscale Change from Baseline, Troriluzole vs Placebo Difference Estimate (Week 8): −0.36
YBOCS Total Change from Baseline, Troriluzole vs Placebo Difference Estimate (Week 8): −1.5
YBOCS Total Change from Baseline, LS Mean (Week 8, 140 mg QD first 4 weeks then 200 mg QD, added to SOC): −5.1 points
YBOCS Total Score Change from Baseline, LS Mean (Week 8): −4.4
YBOCS Total Change from Baseline, LS Mean [2]: −6.0 points
YBOCS Total Change from Baseline, Troriluzole vs Placebo Difference Estimate [2]: −2.9
YBOCS Compulsions Subscale Change from Baseline, LS Mean (Week 12): −3.01
YBOCS Compulsions Subscale Change from Baseline, Troriluzole vs Placebo Difference Estimate (Week 12): −0.64
YBOCS Obsessions Subscale Change from Baseline, LS Mean (Week 12): −2.91
YBOCS Obsessions Subscale Change from Baseline, Troriluzole vs Placebo Difference Estimate (Week 12): −0.36
YBOCS Total Change from Baseline, Troriluzole vs Placebo Difference Estimate (Week 12): −1.0
YBOCS Total Change from Baseline, LS Mean (Week 12, 140 mg QD first 4 weeks then 200 mg QD, added to SOC): −5.9 points
YBOCS Total Score Change from Baseline, LS Mean (Week 12): −5.0
YBOCS Total Change from Baseline, LS Mean [3]: −7.0 points
YBOCS Total Change from Baseline, Troriluzole vs Placebo Difference Estimate [3]: −2.4
safety profile (in vivo): safe and well tolerated
